Assay results: patent US20250231185A1, “Coronavirus T Cell Epitopes, Megapools and Uses Thereof” (La Jolla Institute for Immunology, priority 2021, published 2025)

System: CD8+ T cells
Experiment: Meta-analysis of published SARS-CoV-2 CD8 T cell epitope data curated in the IEDB (25 studies)
Type: cell-based, human
[1] = CD8-restricted SARS-CoV-2 epitopes, Yes = recognized by 3 or more donors/different studies
[2] = CD8 epitopes, Yes = recognized by 3 or more donors/different studies
[3] = SARS-CoV-2-derived CD8 epitopes, dominant = recognized by 3 or more donors/different studies
[4] = CD8S (D) Megapool, antigen S, dominant = recognized in 3 or more donors/studies

**Q.** Which Dominant [1] does the source give for 1117 (ITLKKRWQLAL) [compound 1117] here?
**A.** Yes (more dominant epitopes are defined by being recognized by 3 or more donors/different studies)

**Q.** How did the Dominant [2] turn out when 437 (NRFLYIIKL) [compound 437] was run?
**A.** Yes (more dominant epitopes are defined by being recognized by 3 or more donors/different studies)

**Q.** 841 (FLLNKEMYL) [compound 841] was tested. Which Dominant [3] did it give?
**A.** Yes (more dominant epitopes are defined by being recognized by 3 or more donors/different studies)

**Q.** 848 (TSEDMLNPNY) [compound 848] was tested. Which Dominant [3] did it give?
**A.** Yes (more dominant epitopes are defined by being recognized by 3 or more donors/different studies)

**Q.** How did the Dominant [2] turn out when 477 (ASQRVAGDSGFAAY) [compound 477] was run?
**A.** Yes (more dominant epitopes are defined by being recognized by 3 or more donors/different studies)

**Q.** For 1478 (TPINLVRDL) [compound 1478], which Dominant [4] is on record?
**A.** Yes (more dominant epitopes are defined by being recognized by 3 or more donors/different studies)

**Q.** For 1190 (KLGSLVVRC) [compound 1190], which Dominant [1] is on record?
**A.** Yes (more dominant epitopes are defined by being recognized by 3 or more donors/different studies)

**Q.** Which Dominant [3] does the source give for 719 (NYMPYFFTL) [compound 719] here?
**A.** Yes (more dominant epitopes are defined by being recognized by 3 or more donors/different studies)

**Q.** How did the Dominant [2] turn out when 499 (KMKDLSPRW) [compound 499] was run?
**A.** Yes (more dominant epitopes are defined by being recognized by 3 or more donors/different studies)

**Q.** Which Dominant [1] does the source give for 1220 (RFDNPVLPF) [compound 1220] here?
**A.** Yes (more dominant epitopes are defined by being recognized by 3 or more donors/different studies)

**Q.** 1503 (LTDEMIAQY) [compound 1503] was tested. Which Dominant [4] did it give?
**A.** Yes (more dominant epitopes are defined by being recognized by 3 or more donors/different studies)

**Q.** How did the Dominant [4] turn out when 1487 (NLDSKVGGNY) [compound 1487] was run?
**A.** Yes (more dominant epitopes are defined by being recognized by 3 or more donors/different studies)

**Q.** For 457 (SMWSFNPET) [compound 457], which Dominant [2] is on record?
**A.** Yes (more dominant epitopes are defined by being recognized by 3 or more donors/different studies)

**Q.** How did the Dominant [1] turn out when 1233 (KSWMESEFRVY) [compound 1233] was run?
**A.** Yes (more dominant epitopes are defined by being recognized by 3 or more donors/different studies)

**Q.** For 1286 (RISNCVADY) [compound 1286], which Dominant [1] is on record?
**A.** Yes (more dominant epitopes are defined by being recognized by 3 or more donors/different studies)

**Q.** 1187 (IQYIDIGNY) [compound 1187] was tested. Which Dominant [1] did it give?
**A.** Yes (more dominant epitopes are defined by being recognized by 3 or more donors/different studies)

**Q.** 1489 (YFPLQSYGF) [compound 1489] was tested. Which Dominant [4] did it give?
**A.** Yes (more dominant epitopes are defined by being recognized by 3 or more donors/different studies)

**Q.** 887 (TLGVYDYLVST) [compound 887] was tested. Which Dominant [3] did it give?
**A.** Yes (more dominant epitopes are defined by being recognized by 3 or more donors/different studies)

**Q.** 1485 (KIADYNYKL) [compound 1485] was tested. Which Dominant [4] did it give?
**A.** Yes (more dominant epitopes are defined by being recognized by 3 or more donors/different studies)

**Q.** Which Dominant [2] does the source give for 492 (KFPRGQGVPI) [compound 492] here?
**A.** Yes (more dominant epitopes are defined by being recognized by 3 or more donors/different studies)

**Q.** For 1140 (LLYDANYFL) [compound 1140], which Dominant [1] is on record?
**A.** Yes (more dominant epitopes are defined by being recognized by 3 or more donors/different studies)

**Q.** How did the Dominant [1] turn out when 1157 (HLVDFQVTI) [compound 1157] was run?
**A.** Yes (more dominant epitopes are defined by being recognized by 3 or more donors/different studies)

**Q.** How did the Dominant [1] turn out when 1204 (YTNSFTRGVY) [compound 1204] was run?
**A.** Yes (more dominant epitopes are defined by being recognized by 3 or more donors/different studies)

**Q.** Which Dominant [1] does the source give for 1192 (LEYHDVRVVL) [compound 1192] here?
**A.** Yes (more dominant epitopes are defined by being recognized by 3 or more donors/different studies)

**Q.** Which Dominant [4] does the source give for 1491 (GPKKSTNLV) [compound 1491] here?
**A.** Yes (more dominant epitopes are defined by being recognized by 3 or more donors/different studies)

**Q.** 860 (VLAWLYAAV) [compound 860] was tested. Which Dominant [3] did it give?
**A.** Yes (more dominant epitopes are defined by being recognized by 3 or more donors/different studies)

**Q.** Which Dominant [1] does the source give for 1298 (NLDSKVGGNY) [compound 1298] here?
**A.** Yes (more dominant epitopes are defined by being recognized by 3 or more donors/different studies)

**Q.** Which Dominant [2] does the source give for 494 (NTNSSPDDQIGYY) [compound 494] here?
**A.** Yes (more dominant epitopes are defined by being recognized by 3 or more donors/different studies)

**Q.** For 497 (YYRRATRRIR) [compound 497], which Dominant [2] is on record?
**A.** Yes (more dominant epitopes are defined by being recognized by 3 or more donors/different studies)

**Q.** How did the Dominant [2] turn out when 423 (YVYSRVKNL) [compound 423] was run?
**A.** Yes (more dominant epitopes are defined by being recognized by 3 or more donors/different studies)

**Q.** Which Dominant [4] does the source give for 1473 (TEKSNIIRGW) [compound 1473] here?
**A.** Yes (more dominant epitopes are defined by being recognized by 3 or more donors/different studies)

**Q.** For 851 (TPKYKFVRI) [compound 851], which Dominant [3] is on record?
**A.** Yes (more dominant epitopes are defined by being recognized by 3 or more donors/different studies)

**Q.** With 1479 (LLALHRSYL) [compound 1479] as the substance, how does the Dominant [4] read?
**A.** Yes (more dominant epitopes are defined by being recognized by 3 or more donors/different studies)

**Q.** Which Dominant [2] does the source give for 426 (KLLEQWNLV) [compound 426] here?
**A.** Yes (more dominant epitopes are defined by being recognized by 3 or more donors/different studies)

**Q.** With 1501 (LLQYGSFCT) [compound 1501] as the substance, how does the Dominant [4] read?
**A.** Yes (more dominant epitopes are defined by being recognized by 3 or more donors/different studies)

**Q.** 1226 (TEKSNIIRGW) [compound 1226] was tested. Which Dominant [1] did it give?
**A.** Yes (more dominant epitopes are defined by being recognized by 3 or more donors/different studies)

**Q.** 429 (LQFAYANRNRFLY) [compound 429] was tested. Which Dominant [2] did it give?
**A.** Yes (more dominant epitopes are defined by being recognized by 3 or more donors/different studies)

**Q.** 1251 (LPQGFSAL) [compound 1251] was tested. Which Dominant [1] did it give?
**A.** Yes (more dominant epitopes are defined by being recognized by 3 or more donors/different studies)

**Q.** 1516 (RLNEVAKNL) [compound 1516] was tested. Which Dominant [4] did it give?
**A.** Yes (more dominant epitopes are defined by being recognized by 3 or more donors/different studies)

**Q.** For 858 (GTDLEGNFY) [compound 858], which Dominant [3] is on record?
**A.** Yes (more dominant epitopes are defined by being recognized by 3 or more donors/different studies)

**Q.** With 1508 (VLNDILSRL) [compound 1508] as the substance, how does the Dominant [4] read?
**A.** Yes (more dominant epitopes are defined by being recognized by 3 or more donors/different studies)

**Q.** Which Dominant [1] does the source give for 1132 (YLYALVYFL) [compound 1132] here?
**A.** Yes (more dominant epitopes are defined by being recognized by 3 or more donors/different studies)

**Q.** For 1296 (KIADYNYKL) [compound 1296], which Dominant [1] is on record?
**A.** Yes (more dominant epitopes are defined by being recognized by 3 or more donors/different studies)

**Q.** How did the Dominant [4] turn out when 1470 (STQDLFLPFF) [compound 1470] was run?
**A.** Yes (more dominant epitopes are defined by being recognized by 3 or more donors/different studies)

**Q.** How did the Dominant [2] turn out when 493 (FPRGQGVPI) [compound 493] was run?
**A.** Yes (more dominant epitopes are defined by being recognized by 3 or more donors/different studies)

**Q.** For 723 (ASMPTTIAK) [compound 723], which Dominant [3] is on record?
**A.** Yes (more dominant epitopes are defined by being recognized by 3 or more donors/different studies)

**Q.** With 866 (SAFAMMFVK) [compound 866] as the substance, how does the Dominant [3] read?
**A.** Yes (more dominant epitopes are defined by being recognized by 3 or more donors/different studies)

**Q.** How did the Dominant [1] turn out when 1212 (STQDLFLPFF) [compound 1212] was run?
**A.** Yes (more dominant epitopes are defined by being recognized by 3 or more donors/different studies)

**Q.** With 476 (ATSRTLSYY) [compound 476] as the substance, how does the Dominant [2] read?
**A.** Yes (more dominant epitopes are defined by being recognized by 3 or more donors/different studies)

**Q.** For 882 (SMWALIISV) [compound 882], which Dominant [3] is on record?
**A.** Yes (more dominant epitopes are defined by being recognized by 3 or more donors/different studies)

**Q.** 1514 (VVFLHVTYV) [compound 1514] was tested. Which Dominant [4] did it give?
**A.** Yes (more dominant epitopes are defined by being recognized by 3 or more donors/different studies)

**Q.** 1515 (GTHWFVTQR) [compound 1515] was tested. Which Dominant [4] did it give?
**A.** Yes (more dominant epitopes are defined by being recognized by 3 or more donors/different studies)

**Q.** With 1507 (NQKLIANQF) [compound 1507] as the substance, how does the Dominant [4] read?
**A.** Yes (more dominant epitopes are defined by being recognized by 3 or more donors/different studies)

**Q.** Which Dominant [4] does the source give for 1513 (APHGVVFLHV) [compound 1513] here?
**A.** Yes (more dominant epitopes are defined by being recognized by 3 or more donors/different studies)

**Q.** Which Dominant [4] does the source give for 1502 (LLFNKVTLA) [compound 1502] here?
**A.** Yes (more dominant epitopes are defined by being recognized by 3 or more donors/different studies)

**Q.** Which Dominant [4] does the source give for 1476 (FVFKNIDGY) [compound 1476] here?
**A.** Yes (more dominant epitopes are defined by being recognized by 3 or more donors/different studies)

**Q.** With 1152 (YYQLYSTQL) [compound 1152] as the substance, how does the Dominant [1] read?
**A.** Yes (more dominant epitopes are defined by being recognized by 3 or more donors/different studies)

**Q.** 1263 (YYVGYLQPRTF) [compound 1263] was tested. Which Dominant [1] did it give?
**A.** Yes (more dominant epitopes are defined by being recognized by 3 or more donors/different studies)

**Q.** Which Dominant [4] does the source give for 1471 (RFDNPVLPF) [compound 1471] here?
**A.** Yes (more dominant epitopes are defined by being recognized by 3 or more donors/different studies)

**Q.** 877 (KLKDCVMYA) [compound 877] was tested. Which Dominant [3] did it give?
**A.** Yes (more dominant epitopes are defined by being recognized by 3 or more donors/different studies)

**Q.** Which Dominant [4] does the source give for 1495 (SVASQSIIAY) [compound 1495] here?
**A.** Yes (more dominant epitopes are defined by being recognized by 3 or more donors/different studies)

**Q.** How did the Dominant [2] turn out when 467 (HLRIAGHHLGR) [compound 467] was run?
**A.** Yes (more dominant epitopes are defined by being recognized by 3 or more donors/different studies)

**Q.** 1107 (FVRATATIPI) [compound 1107] was tested. Which Dominant [1] did it give?
**A.** Yes (more dominant epitopes are defined by being recognized by 3 or more donors/different studies)

**Q.** Which Dominant [4] does the source give for 1475 (SSANNCTFEY) [compound 1475] here?
**A.** Yes (more dominant epitopes are defined by being recognized by 3 or more donors/different studies)

**Q.** Which Dominant [2] does the source give for 475 (ATSRTLSYYK) [compound 475] here?
**A.** Yes (more dominant epitopes are defined by being recognized by 3 or more donors/different studies)
